Test results published in US20240140986A1, “SYNTHETIC URSOLIC ACID DERIVATIVES AND METHODS OF USE THEREOF” (REATA PHARMACEUTICALS, INC., priority 2021, published 2024).
Read-outs that look alike come from different tables or passages of the source.

Columns and labels:
[1] = tested on: IFNγ-induced NO production in RAW 264.7 cells; test: Nitric Oxide Suppression Assay (IFNγ-induced NO, Griess nitrite readout); assay type: cell-based, mouse; settings: for IC50: Mus musculus; for Avg NO IC50 Relative to RTA402 (fold): Table 2, ratio to RTA402
Method in brief: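 Nitrite, a surrogate for NO, was measured by Griess reagent (525 nm) and quantified from standards by linear regression, expressed as percent of DMSO plus IFNγ control to give IC50. RAW 264.7 cells had 2 h compound pretreatment, then 24 h with 20 ng/mL IFNγ; WST-1 checked viability.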

[2] = tested on: Nrf2 / ARE-dependent luciferase in AREc32 reporter cell line; test: AREc32 luciferase reporter activation (Nrf2 induction); assay type: cell-based, human; settings: for EC (2-fold): Homo sapiens, Arec32; for Relative Avg AREc32 EC2X Relative to RTA402 (fold): ratio to RTA402
Method in brief: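 EC2X is the concentration raising luminescence 2-fold above DMSO-treated cells, from a nonlinear-regression dose–response fit. Compounds (0.03–1000 nM) were applied for nineteen hours, starting one day after seeding 20,000 reporter cells per well. Luciferase was read with One-Glo reagent.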

[3] = RAW264.7, Table 2, RAW 264.7 cells, 2 h pretreatment, 20 ng/mL interferon gamma 24 h, read-out: Avg NO IC50 (nM) (Mean ± SD)
[4] = Table 2, concentration increasing luminescence 2-fold above vehicle, 19 h treatment, read-out: Avg AREc32 EC2X (nM) (Mean ± SD)
[5] = RAW264.7, Table 3, oleanolic acid derivative analogs, read-out: Avg NO IC50
[6] = Table 3, oleanolic acid derivative analogs, read-out: Avg ARE EC-2X
[7] = RAW264.7, Table 3, ursolic acid derivatives, read-out: Avg NO IC50 (nM) (Mean ± SD)
[8] = Table 3, ursolic acid derivatives, read-out: Avg ARE EC-2X (nM) (Mean ± SD)

Compound	IC50 [1, 3] [nM]	Avg NO IC50 Relative to RTA402 (fold) [1] [fold]	EC (2-fold) [2, 4] [nM]	Relative Avg AREc32 EC2X Relative to RTA402 (fold) ([2]; Table 2)	IC50 [1, 5] [nM]	EC (2-fold) [2, 6] [nM]	IC50 [1, 7] [nM]	EC (2-fold) [2, 8] [nM]
C[C@@H]1[C@H]2[C@H]3C(=O)C=C4[C@@]5(C)C=C(C#N)C(=O)C(C)(C)[C@@H]5CC[C@@]4(C)[C@]3(C)CC[C@@]2(CN(C)C(=O)C(F)F)CC[C@H]1C [Compound T39]	10.4 ± 2.6	3.38 ± 0.68	9.58 ± 2.31	0.799 ± 0.095	–	–	–	–
CC1(C)CC[C@]2(CNC(=O)C3CC3)CC[C@]3(C)[C@H](C(=O)C=C4[C@@]5(C)C=C(C#N)C(=O)C(C)(C)[C@@H]5CC[C@]43C)[C@@H]2C1 [CC19, reference compound]	–	–	–	–	0.5	3.22	–	–
Cc1noc([C@]23CC[C@@H](C)[C@H](C)[C@H]2[C@H]2C(=O)C=C4[C@@]5(C)C6O[C@@]6(C#N)C(=O)C(C)(C)[C@@H]5CC[C@@]4(C)[C@]2(C)CC3)n1 (some centres unmarked) [Compound T99]	14.8 ± 4.7	5.92 ± 0.69	10.4 ± 0.8	0.864 ± 0.046	–	–	–	–
CCc1noc([C@]23CCC(C)(C)C[C@H]2[C@H]2C(=O)C=C4[C@@]5(C)C=C(C#N)C(=O)C(C)(C)[C@@H]5CC[C@@]4(C)[C@]2(C)CC3)n1 [CC4, reference compound]	–	–	–	–	5.3	21.4	–	–
C[C@@H]1[C@H]2[C@H]3C(=O)C=C4[C@@]5(C)C=C(C#N)C(=O)C(C)(C)[C@@H]5CC[C@@]4(C)[C@]3(C)CC[C@@]2(N2CCOC2=O)CC[C@H]1C [Compound T59]	16 ± 5	5.03 ± 1.61	15.4 ± 1.2	1.23 ± 0.26	–	–	16 ± 5	15.4 ± 1.2
C[C@@H]1[C@H]2[C@H]3C(=O)C=C4[C@@]5(C)C=C(C#N)C(=O)C(C)(C)[C@@H]5CC[C@@]4(C)[C@]3(C)CC[C@@]2(CN2CCCC2=O)CC[C@H]1C [Compound T15]	4.2 ± 2.4	1.99 ± 0.20	5.21 ± 1.11	0.447 ± 0.085	–	–	4.2 ± 2.4	5.21 ± 1.11
[2H]C([2H])([2H])C(=O)NC[C@]12CC[C@@H](C)[C@H](C)[C@H]1[C@H]1C(=O)C=C3[C@@]4(C)C=C(C#N)C(=O)C(C)(C)[C@@H]4CC[C@@]3(C)[C@]1(C)CC2 [Compound T24]	2.87 ± 1.67	0.967 ± 0.21	1.49 ± 0.31	0.126 ± 0.026	–	–	2.87 ± 1.67	1.49 ± 0.31
C[C@@H]1[C@H]2[C@H]3C(=O)C=C4[C@@]5(C)C=C(C#N)C(=O)C(C)(C)[C@@H]5CC[C@@]4(C)[C@]3(C)CC[C@@]2(CN2CCOC2=O)CC[C@H]1C [Compound T41]	5.41 ± 2.52	1.79 ± 0.77	4.73 ± 2.12	0.354 ± 0.155	–	–	5.41 ± 2.52	4.73 ± 2.12
C[C@@H]1[C@H]2[C@H]3C(=O)C=C4[C@@]5(C)C=C(C#N)C(=O)C(C)(C)[C@@H]5CC[C@@]4(C)[C@]3(C)CC[C@@]2(/C=N/O)CC[C@H]1C [Compound T84]	7.91 ± 2.32	4.07 ± 1.76	9.29 ± 1.52	1.14 ± 0.22	–	–	–	–
C[C@@H]1[C@H]2[C@H]3C(=O)C=C4[C@@]5(C)C=C(C#N)C(=O)C(C)(C)[C@@H]5CC[C@@]4(C)[C@]3(C)CC[C@@]2(Cn2cncn2)CC[C@H]1C [Compound T47]	8.19 ± 2	2.70 ± 0.52	7.08 ± 1.2	0.573 ± 0.139	–	–	8.19 ± 2	7.1 ± 1.2
C[C@@H]1[C@H]2[C@H]3C(=O)C=C4[C@@]5(C)C=C(C#N)C(=O)C(C)(C)[C@@H]5CC[C@@]4(C)[C@]3(C)CC[C@@]2(O)CC[C@H]1C [Compound T68]	7.24 ± 0.77	2.70 ± 0.28	7.56 ± 0.77	0.575 ± 0.141	–	–	–	–
Cc1nnc([C@]23CC[C@@H](C)[C@H](C)[C@H]2[C@H]2C(=O)C=C4[C@@]5(C)C=C(C#N)C(=O)C(C)(C)[C@@H]5CC[C@@]4(C)[C@]2(C)CC3)o1 [Compound T69]	16.9 ± 5	4.94 ± 1.27	8.08 ± 1.98	0.673 ± 0.139	–	–	16.9 ± 5	8.08 ± 1.98
C[C@@H]1[C@H]2[C@H]3C(=O)C=C4[C@@]5(C)C=C(C#N)C(=O)C(C)(C)[C@@H]5CC[C@@]4(C)[C@]3(C)CC[C@@]2(N2CCCC2=O)CC[C@H]1C [Compound T58]	26 ± 8.8	8.67 ± 3.30	33.6 ± 3.3	2.64 ± 0.47	–	–	26 ± 8.8	33.6 ± 3.3
CC1(C)CC[C@]2(CO)CC[C@]3(C)[C@H](C(=O)C=C4[C@@]5(C)C=C(C#N)C(=O)C(C)(C)[C@@H]5CC[C@]43C)[C@@H]2C1 [CC13, reference compound]	–	–	–	–	0.5	8.82	–	–
C[C@@H]1[C@H]2[C@H]3C(=O)C=C4[C@@]5(C)C6O[C@@]6(C#N)C(=O)C(C)(C)[C@@H]5CC[C@@]4(C)[C@]3(C)CC[C@@]2(CNC(=O)C2CC2)CC[C@H]1C (some centres unmarked) [Compound T98]	15.2 ± 4.3	4.45 ± 1.25	6.85 ± 0.51	0.574 ± 0.052	–	–	–	–
CC1(C)CC[C@]2(n3ccnc3)CC[C@]3(C)[C@H](C(=O)C=C4[C@@]5(C)C=C(C#N)C(=O)C(C)(C)[C@@H]5CC[C@]43C)[C@@H]2C1 [CC62, reference compound]	–	–	–	–	3.2	26.8	–	–
C[C@@H]1[C@H]2[C@H]3C(=O)C=C4[C@@]5(C)C=C(C#N)C(=O)C(C)(C)[C@@H]5CC[C@@]4(C)[C@]3(C)CC[C@@]2(CN2CCC2=O)CC[C@H]1C [Compound T14]	2.4 ± 1.2	1.27 ± 0.31	3.91 ± 0.52	0.349 ± 0.018	–	–	2.4 ± 1.2	3.91 ± 0.52
C[C@@H]1[C@H]2[C@H]3C(=O)C=C4[C@@]5(C)C=C(C#N)C(=O)C(C)(C)[C@@H]5CC[C@@]4(C)[C@]3(C)CC[C@@]2(C=O)CC[C@H]1C [Compound T83]	4.43 ± 2.68	2.75 ± 1.67	2.37 ± 0.33	0.294 ± 0.048	–	–	–	–
CC1(C)CC[C@]2(Cn3ccnn3)CC[C@]3(C)[C@H](C(=O)C=C4[C@@]5(C)C=C(C#N)C(=O)C(C)(C)[C@@H]5CC[C@]43C)[C@@H]2C1 [CC50, reference compound]	–	–	–	–	1.1	9.57	–	–
C[C@@H]1[C@H]2[C@H]3C(=O)C=C4[C@@]5(C)C=C(C#N)C(=O)C(C)(C)[C@@H]5CC[C@@]4(C)[C@]3(C)CC[C@@]2(CC(=O)NC2CC2)CC[C@H]1C [Compound T92]	5.97 ± 2.71	3.68 ± 1.63	4.33 ± 0.75	0.555 ± 0.181	–	–	–	–
CC1(C)CC[C@]2(c3nc(CO)no3)CC[C@]3(C)[C@H](C(=O)C=C4[C@@]5(C)C=C(C#N)C(=O)C(C)(C)[C@@H]5CC[C@]43C)[C@@H]2C1 [CC10, reference compound]	–	–	–	–	2.1	3.39	–	–
C[C@@H]1[C@H]2[C@H]3C(=O)C=C4[C@@]5(C)C=C(C#N)C(=O)C(C)(C)[C@@H]5CC[C@@]4(C)[C@]3(C)CC[C@@]2(CNC(=O)N2CCC2)CC[C@H]1C [Compound T27]	4.03 ± 1.66	1.15 ± 0.40	1.62 ± 0.22	0.144 ± 0.008	–	–	–	–
